Consider five molecules from patent publication US20250170156A1, “TOLL-LIKE RECEPTOR LIGANDS” (INIMMUNE CORPORATION, priority 2018, published 2025).

Test [1] has as its system primary hPBMCs. The test can be described thus: Induction of RANTES from primary hPBMCs (ELISA). Background: In an ELISA, binding on a coated surface is turned into a signal by an enzyme label.
Test [2] deals with influenza virus antigen A/Victoria/210/2009-H3N2. Kind of test: Vaccine adjuvant study, murine influenza virus vaccination model. It counts as in vivo, BALB/c mice. The following applies: intramuscular, 0.1, 0.01 or 0.001 μg with 0.2 μg antigen, 14 days after single immunization, 2% glycine. As for the experimental part:
Vaccine adjuvant study. Compounds 2, 4, 5 and 7 were evaluated as vaccine adjuvant in a murine influenza virus vaccination model. 7-9 week old BALB/c mice (10 mice per group) were injected intramuscularly in a hind limb with the influenza virus antigen A/Victoria/210/2009-H3N2 (0.2 μg/mouse) with or without 0.1, 0.01 or 0.001 μg of compound 2, 4, 5 or 7 (formulated in 2% glycine). Fourteen days after a single immunization, animals were bled via the submandibular vein and serum was collected to assay for A/Victoria specific antibodies by ELISA assay (FIG. 7).

A further test concerns the target T1, hTLR4 (Homo sapiens, UniProt O00206+Q9Y6Y9).
T1 construct: expressed in transfected cells; host or cells: HEK cells expressing hTLR4 and an NF-κB driven SEAP reporter
Kind of test: HEK hTLR4 NF-κB driven SEAP reporter assay (hTLR4 activation). The settings on record: Table 1b, 18 hours. The format is cell-based. As for the experimental part:
hTLR4 activation. HEK hTLR4-expressing cells were treated with 100 μM concentration of test compound followed by a 5-fold dilution series. HEK hTLR4-expressing cells also contained an NF-κB driven SEAP reporter and were stimulated with the indicated concentration (FIG. 1A-1C) of the test compound for 18 hours followed by assessment of the cellular supernatant for SEAP by a Quantikine SEAP assay (InvivoGen). The SEAP assay was used to look at secretion of the NF-κB driven alkaline-phosphatase reporter gene in response to TLR4 activation by the compounds and results are interpreted both in terms of potency of the compounds to induce SEAP activation (i.e. potency where a lower EC50 indicates higher potency) and efficacy for receptor activation (i.e. maximal SEAP induction).
(A reporter such as luciferase makes a cellular process visible.)

The test system of test [3] is primary hPBMCs. Kind of test: Induction of MIP-1β from primary hPBMCs (ELISA).
Setting [4] is: Homo sapiens, read-out: hPBMCs EC50 RANTES, Table 4b, Average of Donors 22, 5.
Setting [5] is: Homo sapiens, read-out: hPBMCs EC50 RANTES, Table 4b, Donor 5.
The mark [6] stands for this setting: Homo sapiens, read-out: hPBMCs EC50 RANTES, Table 4b, Donor 22.
[7] abbreviates: Homo sapiens, read-out: hPBMCs EC50 MIP-1β, Table 4b, Average of Donors 22, 5.
Setting [8] is: Homo sapiens, read-out: hPBMCs EC50 MIP-1β, Table 4b, Donor 5.
The mark [9] stands for this setting: Homo sapiens, read-out: hPBMCs EC50 MIP-1β, Table 4b, Donor 22.
Setting [10] is: Homo sapiens, read-out: hPBMCs EC50 RANTES, Table 4c, one donor.
Where [11] appears, read: Homo sapiens, 96 h, read-out: hPBMCs EC50 MIP-1β, Table 4d, one donor.

pEC50: −log10 of the molar value. Counter-ions that a name gives are not always drawn.

T1 sequence (O00206 24-839): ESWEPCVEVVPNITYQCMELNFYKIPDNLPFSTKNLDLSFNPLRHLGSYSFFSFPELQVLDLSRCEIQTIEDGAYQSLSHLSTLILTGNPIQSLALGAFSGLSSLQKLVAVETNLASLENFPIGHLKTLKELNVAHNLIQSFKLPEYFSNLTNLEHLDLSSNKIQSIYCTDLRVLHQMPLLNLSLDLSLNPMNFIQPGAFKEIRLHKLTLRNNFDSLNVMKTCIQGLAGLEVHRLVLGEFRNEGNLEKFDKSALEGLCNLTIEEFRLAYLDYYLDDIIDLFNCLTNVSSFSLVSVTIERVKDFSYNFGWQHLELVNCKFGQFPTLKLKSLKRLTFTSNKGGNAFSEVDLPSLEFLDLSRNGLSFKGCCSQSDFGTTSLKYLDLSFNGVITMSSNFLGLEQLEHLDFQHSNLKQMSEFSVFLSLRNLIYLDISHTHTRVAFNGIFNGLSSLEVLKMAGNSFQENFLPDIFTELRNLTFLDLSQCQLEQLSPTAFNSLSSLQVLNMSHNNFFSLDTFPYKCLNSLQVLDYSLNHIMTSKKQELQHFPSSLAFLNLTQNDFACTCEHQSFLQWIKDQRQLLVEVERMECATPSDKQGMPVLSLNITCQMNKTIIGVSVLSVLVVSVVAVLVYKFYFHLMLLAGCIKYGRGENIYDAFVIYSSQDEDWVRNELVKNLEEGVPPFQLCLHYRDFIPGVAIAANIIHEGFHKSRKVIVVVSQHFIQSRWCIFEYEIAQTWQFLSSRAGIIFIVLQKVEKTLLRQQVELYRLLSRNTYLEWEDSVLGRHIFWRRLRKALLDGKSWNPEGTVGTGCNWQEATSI
T1 sequence (Q9Y6Y9 17-160 limits assumed): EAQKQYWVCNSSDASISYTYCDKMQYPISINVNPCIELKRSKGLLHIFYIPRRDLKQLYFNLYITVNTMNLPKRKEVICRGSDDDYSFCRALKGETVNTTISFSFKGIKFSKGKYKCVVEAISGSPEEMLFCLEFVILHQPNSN

`CCCCCCCCCCC[C@H](CC(=O)NC1[C@H](OC[C@H](NC(=O)C[C@@H](CCCCCCCCCCC)OCCCCCCCCCC)C(=O)O)OC(CO)[C@@H](OS(=O)(=O)O)[C@@H]1NC(=O)C[C@@H](CCCCCCCCCCC)OCCCCCCCCCC)OCCCCCCCCCC` (stereo partly drawn) [Compound 5, N—[(R)-3-Decyloxytetradecanoyl]-O-[2,3-di-[(R)-3-decyloxytetradecanoylamino]-2,3-dideoxy-4-O-sulfoxy-β-D-allopyranosyl]-L-serine]: the pEC50 with primary hPBMCs [1] (setting [4]) was 10.62; with primary hPBMCs [1] (setting [5]), 10.81; with primary hPBMCs [1] (setting [6]), 10.50; at hTLR4 it was 8.54; in the test on primary hPBMCs [3] (setting [7]) it was 10.57; in the test with primary hPBMCs [3] (setting [8]), 10.82. In the test on primary hPBMCs [3] (setting [9]), the pEC50 is 10.41. In addition, the “adjuvant effect on flu-specific IgG2a antibody titers compared to antigen alone” value in test [2] was “dose dependent adjuvant effect”.

Take `CCCCCCCCCCC[C@H](CC(=O)NCCO[C@@H]1OC(CO)[C@@H](OCP(=O)(O)O)[C@H](NC(=O)C[C@@H](CCCCCCCCCCC)OC(=O)CCCCCCCCC)C1NC(=O)C[C@@H](CCCCCCCCCCC)OC(=O)CCCCCCCCC)OC(=O)CCCCCCCCC` (some centres unmarked) [Compound 6]: the pEC50 with primary hPBMCs [1] (setting [4]) is 9.76; in the test with primary hPBMCs [1] (setting [5]), 9.62; in the test on primary hPBMCs [1] (setting [6]), 9.96; at hTLR4 it was 7.99; in the test on primary hPBMCs [3] (setting [7]) it was 10.10; in the test on primary hPBMCs [3] (setting [8]), 10.44. The pEC50 with primary hPBMCs [3] (setting [9]) is 9.91.

Consider `CCCCCCCCCCC[C@H](CC(=O)NCCO[C@@H]1OC(CO)[C@@H](OP(=O)(O)O)C(NC(=O)C[C@@H](CCCCCCCCCCC)OC(=O)CCCCCCCc2ccccc2)C1NC(=O)C[C@@H](CCCCCCCCCCC)OC(=O)CCCCCCCc1ccccc1)OC(=O)CCCCCCCc1ccccc1` (stereo partly drawn) [Compound 8, 2-[(R)-3-(8-phenyl)octanoyloxytetradecanoylamino]ethyl 2,3-di-[(R)-3-(8-phenyl)octanoyloxytetradecanoylamino]-2,3-dideoxy-4-O-phosphono-β-D-allopyranoside triethylammonium Salt], for which the figures for the pEC50 in the test on primary hPBMCs [1] (setting [10]), on hTLR4 and in the test on primary hPBMCs [3] (setting [11]) were 10.41, 8.30 and 10.38, respectively.

As to `CCCCCCCCCCC[C@H](CC(=O)NCCO[C@@H]1OC(CO)[C@@H](OP(=O)(O)O)C(NC(=O)C[C@@H](CCCCCCCCCCC)OC(=O)CCCCCCCc2ccccc2)C1NC(=O)C[C@@H](CCCCCCCCCCC)OC(=O)CCCCCCCCC)OC(=O)CCCCCCCCC` (stereo partly drawn) [Compound 9, 2-[(R)-3-decanoyloxytetradecanoylamino]ethyl, 2-[(R)-3-decanoyloxytetradecanoylamino]-3-[(R)-3-(8-phenyl)octanoyloxytetradecanoylamino]-2,3-dideoxy-4-O-phosphono-β-D-allopyranoside triethylammonium salt], the pEC50 in the test on primary hPBMCs [1] (setting [10]) was 9.84; at hTLR4, 7.80; in the test with primary hPBMCs [3] (setting [11]) it was 9.74.

“N—[(R)-3-Decyloxytetradecanoyl]-O-[2,3-di-[(R)-3-decyloxytetradecanoylamino]-2,3-dideoxy-4-O-methylphosphono-β-D-allopyranosyl]-L-serine triethylammonium salt [Compound 7]”: the pEC50 is 11.22 with primary hPBMCs [1] (read-out: hPBMCs EC50 RANTES, Table 4b, Average of Donors 22, 5); 11.39 with primary hPBMCs [1] (read-out: hPBMCs EC50 RANTES, Table 4b, Donor 5); 11.10 in the test with primary hPBMCs [1] (read-out: hPBMCs EC50 RANTES, Table 4b, Donor 22); 9.11 at hTLR4; 11.08 in the test with primary hPBMCs [3] (read-out: hPBMCs EC50 MIP-1β, Table 4b, Average of Donors 22, 5); 11.48 in the test with primary hPBMCs [3] (read-out: hPBMCs EC50 MIP-1β, Table 4b, Donor 5). In addition, the pEC50 with primary hPBMCs [3] (read-out: hPBMCs EC50 MIP-1β, Table 4b, Donor 22) was 10.88. The “adjuvant effect on flu-specific IgG2a antibody titers compared to antigen alone” value in test [2] is reported as “dose dependent adjuvant effect”.

By pEC50 is commonly meant the EC50 on a negative log10 scale, so that one unit is a factor of ten.
